Biological target: T1, Solute carrier family 26 member 9 (Homo sapiens) (UniProt Q7LBE3)
T1 sequence (whole entry): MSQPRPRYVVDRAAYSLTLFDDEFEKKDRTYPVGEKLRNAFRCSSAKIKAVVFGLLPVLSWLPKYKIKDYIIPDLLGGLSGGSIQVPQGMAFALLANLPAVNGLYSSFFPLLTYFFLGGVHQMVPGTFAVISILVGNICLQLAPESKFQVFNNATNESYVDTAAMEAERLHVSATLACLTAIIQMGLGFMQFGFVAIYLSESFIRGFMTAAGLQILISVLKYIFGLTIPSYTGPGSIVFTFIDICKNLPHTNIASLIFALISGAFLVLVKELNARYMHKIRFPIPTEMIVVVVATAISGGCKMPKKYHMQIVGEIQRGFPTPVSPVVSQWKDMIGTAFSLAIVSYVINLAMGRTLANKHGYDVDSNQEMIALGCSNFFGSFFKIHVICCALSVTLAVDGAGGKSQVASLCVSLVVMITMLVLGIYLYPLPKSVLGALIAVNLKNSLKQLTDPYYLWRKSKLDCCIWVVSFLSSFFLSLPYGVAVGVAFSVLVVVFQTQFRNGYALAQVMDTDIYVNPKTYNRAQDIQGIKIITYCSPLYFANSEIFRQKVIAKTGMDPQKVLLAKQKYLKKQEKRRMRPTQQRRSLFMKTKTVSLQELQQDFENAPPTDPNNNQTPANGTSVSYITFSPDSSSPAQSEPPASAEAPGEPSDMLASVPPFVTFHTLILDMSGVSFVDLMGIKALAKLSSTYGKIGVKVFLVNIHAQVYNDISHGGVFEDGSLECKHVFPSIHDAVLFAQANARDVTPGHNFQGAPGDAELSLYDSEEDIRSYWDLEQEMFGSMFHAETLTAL
Experiment: Chloride uptake by the Anion Transporter/Exchanger Protein 9 (SLC26A9) as assessed by a Cl- sensitive FRET (Fluorescence Resonance Energy Transfer) sensor (SuperClomeleon) in HEK-293 cells stably transfected with SLC26A9 (PubChem AID: 1794832)
Format: functional, cell-based
Details: HEK293

SMILES | proof of principle | Inhibition (500 µM) [%]
Cl | Substrate. In Comparison To Wild-Type, Cells Expressing Slc26A9 Showed A Specific Transporter Activity, Upon Substrate Addition, Detected As Significantly Higher Sensor Fluorescence Quenching. | –
O=C(O)c1cccnc1Nc1cccc(C(F)(F)F)c1 | – | > 30
